Source: patent US11866431B2, “Bicyclic compounds” (Vivace Therapeutics, Inc., priority 2018, dated 2024)

test system: 8XTBD luciferase reporter (YAP reporter) in HEK293T cells; test: YAP Reporter Assay; format: cell-based; details: Homo sapiens, HEK-293T, 24 h, read-out: Firefly Luciferase IC50 (μM)
Protocol: HEK293T cells stably transfected with 8XTBD luciferase reporter and pRLTK in 384-well plates were treated with the test compounds, starting from 3 μM (final concentration in assay plate), 1:3 dilution, and 10 points in quadruplicates. Post 24-hr incubation with compounds at 37° C. and 5% CO2, cells were lysed and 8XTBD-driven firefly luciferase and control TK-driven renilla luciferase activities were measured using Promega Dual-Luciferase Reporter Assay System.
Reagents: The reagents used for this study are: DMEM: Invitrogen #11960077, Dual-Glo Luciferase Assay System: Promega-E2980, Puromycin Dihydrochloride: Invitrogen-A1113803, 384-well plate: PerkinElmer-6007480, L-GLUTAMINE: Invitrogen-25030164, Hygromycin B: Invitrogen-10687010, and Penicillin-Streptomycin: Merk-TMS-AB2-C
Media: The media used for this assay were: Culture Medium: DMEM+1 ug/mL puromycin+200 ug/mL hygromycin (with 10% FBS+1 mM L-glutamine); and Assay Medium: DMEM (with 10% FBS+1 mM L-glutamine+1×P/S).
Cell Plating: The appropriate media was warmed at 37° C. by water bath: Culture Medium, Assay Medium, 1*D-PBS, 0.05% trypsin-EDTA. The cells were trypsinized after removing all media, then washed with 1*sterile D-PBS and then with 2 ml 0.05% trypsin-EDTA. The cells were then incubated at RT for one minute. Then 10 ml/75 cm2 flask Assay Medium was added to each flask. Using a 10 ml pipette, the cells were then gently resuspended in the media, until the clumps completely disappeared. The cells were then transferred into 50 ml centrifuge tubes and were centrifuged at 800 rpm for 5 mins. The medium was removed and the cells were resuspended with Assay Medium. An aliquot of cells was used to count the cell density (cells/ml). The cell suspension was then diluted with Assay Medium to a concentration of 6×10^4 cells/ml. 50 ul cells suspension was then plated to 384-well plate (PerkinElmer-6007480), 3×10^3 cells/well and the cells were incubated in an incubator at 37° C. 5% CO2.
Compound Treatment: In the afternoon (incubation of the plate with 3-4 hrs), the test compounds were added by Echo, starting from 3 uM (final concentration in the assay plate), 1:3 dilution, 10 points, quadruplicates. The plate was placed at 37° C. 5% CO2 incubator for 24 hrs.
Detection: The Dual-Glo Luciferase Reagent was prepared by transferring the contents of one bottle of Dual-Glo Luciferase Buffer to one bottle of Dual-Glo Luciferase Substrate to create the Dual-Glo Luciferase Reagent. Mixing was performed by inversion until the substrate was thoroughly dissolved. After mixing, the reagent was aliquoted into 15 ml tubes. In the afternoon (24 hrs post compound treatment), the DMEM+ medium in the 384 well plates were aspirated by Microplate Washer.
Measuring firefly luciferase activity: 20 ul Dual-Glo Luciferase Reagent was added to the 384-well plates. The plates were protected from light to prevent interference with the assay. The plates were shaken for 1 min followed centrifuging plates at 1000 rpm for 30 seconds. After waiting at least 10 minutes, the firefly luminescence was measured by Envision.
Measuring renilla luciferase activity: 20 ul Stop-Glo Reagent was added to the 384-well plates. The plates were shaken for 1 min and then centrifuged at 1000 rpm for 30 seconds. After waiting at least 10 minutes, the renilla luminescence was measured by Envision.
Compound IC50 and maximum inhibition on the firefly luciferase and renilla luciferase activities were reported separately.

SMILES	IC50 [µM]
O=C(NCC(F)(F)F)c1ccc2c(-c3ccc(C(F)(F)F)cc3)cccc2c1 [Compound 54, N-(2,2,2-trifluoroethyl)-5-(4-(trifluoromethyl)phenyl)-2-naphthamide]	< 0.1
CC(C)NC(=O)c1ccc2c(-c3ccc(C(F)(F)F)cc3)cc3sc(N)nc3c2c1 [Compound 63, 2-amino-N-isopropyl-5-(4-(trifluoromethyl)phenyl)naphtho[1,2-d]thiazole-8-carboxamide]	< 0.1
CC(C)NC(=O)c1ccc2c(-c3ccc(C(F)(F)F)cc3)cc3scnc3c2c1 [Compound 68, N-isopropyl-5-(4-(trifluoromethyl)phenyl)naphtho[1,2-d]thiazole-8-carboxamide]	< 0.1
CC(C)NC(=O)c1cnc2c(-c3ccc(C(F)(F)F)cc3)cc(F)c(F)c2c1 [Compound 72, 5,6-Difluoro-N-isopropyl-8-(4-(trifluoromethyl)phenyl)quinoline-3-carboxamide]	< 0.1
CCOc1cc(-c2ccc(C(F)(F)F)cc2)c2ncc(C(=O)NC(C)C)cc2c1 [Compound 80, 6-ethoxy-N-isopropyl-8-(4-(trifluoromethyl)phenyl)quinoline-3-carboxamide]	< 0.1

same assay, conditions: Homo sapiens, HEK-293T; HEK293T cells stably transfected with 8XTBD luciferase reporter and pRLTK; 24-hr incubation; top concentration 3 μM; read-out: Firefly Luciferase IC50

SMILES	IC50 [µM]
NCCOCCOCCNC(=O)c1ccc2c(-c3ccc(C(F)(F)F)cc3)cccc2c1 [Compound 50, N-(2-(2-(2-aminoethoxy)ethoxy)ethyl)-5-(4-(trifluoromethyl)phenyl)-2-naphthamide]	0.1 to 1
CC(=O)N(C)c1cc(-c2ccc(C(F)(F)F)cc2)c2ccc(C(=O)NC(C)C)cc2c1 [Compound 51, N-isopropyl-7-(N-methylacetamido)-5-(4-(trifluoromethyl)phenyl)-2-naphthamide]	0.1 to 1
CC(C)NC(=O)c1ccc2c(-c3ccc(C(F)(F)F)cc3)cc(NS(C)(=O)=O)cc2c1 [Compound 52, N-isopropyl-7-(methylsulfonamido)-5-(4-(trifluoromethyl)phenyl)-2-naphthamide]	< 0.1
CC(C)NC(=O)c1ccc2c(-c3ccc(C(F)(F)F)cc3)cc(N(C)S(C)(=O)=O)cc2c1 [Compound 53, N-isopropyl-7-(N-methylmethylsulfonamido)-5-(4-(trifluoromethyl)phenyl)-2-naphthamide]	0.1 to 1
O=C(NC1CC1)c1ccc2c(-c3ccc(C(F)(F)F)cc3)cccc2c1 [Compound 55, N-cyclopropyl-5-(4-(trifluoromethyl)phenyl)-2-naphthamide]	< 0.1
O=C(NC(CO)CO)c1ccc2c(-c3ccc(C(F)(F)F)cc3)cccc2c1 [Compound 56, N-(1,3-dihydroxypropan-2-yl)-5-(4-(trifluoromethyl)phenyl)-2-naphthamide]	< 0.1
COCCOCCNC(=O)c1ccc2c(-c3ccc(C(F)(F)F)cc3)cccc2c1 [Compound 57, N-(2-(2-methoxyethoxy)ethyl)-5-(4-(trifluoromethyl)phenyl)-2-naphthamide]	0.1 to 1
COCCNC(=O)c1ccc2c(-c3ccc(C(F)(F)F)cc3)cccc2c1 [Compound 58, N-(2-methoxyethyl)-5-(4-(trifluoromethyl)phenyl)-2-naphthamide]	< 0.1
C[C@@H](CN)NC(=O)c1ccc2c(-c3ccc(C(F)(F)F)cc3)cccc2c1 [Compound 59, (S)—N-(1-aminopropan-2-yl)-5-(4-(trifluoromethyl)phenyl)-2-naphthamide]	0.1 to 1
C[C@H](CN)NC(=O)c1ccc2c(-c3ccc(C(F)(F)F)cc3)cccc2c1 [Compound 60, (R)—N-(1-aminopropan-2-yl)-5-(4-(trifluoromethyl)phenyl)-2-naphthamide]	< 0.1
O=C(NC(CF)CF)c1ccc2c(-c3ccc(C(F)(F)F)cc3)cccc2c1 [Compound 62, N-(1,3-difluoropropan-2-yl)-5-(4-(trifluoromethyl)phenyl)-2-naphthamide]	0.1 to 1
C[C@@H](CN(C)C)NC(=O)c1ccc2c(-c3ccc(C(F)(F)F)cc3)cccc2c1 [Compound 64, (S)—N-(1-(dimethylamino)propan-2-yl)-5-(4-(trifluoromethyl)phenyl)-2-naphthamide]	1 to 3
C[C@H](CN(C)C)NC(=O)c1ccc2c(-c3ccc(C(F)(F)F)cc3)cccc2c1 [Compound 65, (R)—N-(1-(dimethylamino)propan-2-yl)-5-(4-(trifluoromethyl)phenyl)-2-naphthamide]	1 to 3
C[C@@H](CN1CCCC1)NC(=O)c1ccc2c(-c3ccc(C(F)(F)F)cc3)cccc2c1 [Compound 66, (S)—N-(1-(pyrrolidin-1-yl)propan-2-yl)-5-(4-(trifluoromethyl)phenyl)-2-naphthamide]	0.1 to 1
C[C@H](CN1CCCC1)NC(=O)c1ccc2c(-c3ccc(C(F)(F)F)cc3)cccc2c1 [Compound 67, (R)—N-(1-(pyrrolidin-1-yl)propan-2-yl)-5-(4-(trifluoromethyl)phenyl)-2-naphthamide]	0.1 to 1
C[C@H](CN1CCOCC1)NC(=O)c1ccc2c(-c3ccc(C(F)(F)F)cc3)cccc2c1 [Compound 70, (R)—N-(1-morpholinopropan-2-yl)-5-(4-(trifluoromethyl)phenyl)-2-naphthamide]	1 to 3
CC(C)NC(=O)c1ccc2c(-c3ccc(C(F)(F)F)cc3)cc3ocnc3c2c1 [Compound 71, N-isopropyl-5-(4-(trifluoromethyl)phenyl)naphtho[1,2-d]oxazole-8-carboxamide]	< 0.1
CS(=O)(=O)NC(=O)c1cnc2c(-c3ccc(C(F)(F)F)cc3)cc(F)c(F)c2c1 [Compound 73, 5,6-Difluoro-N-(methylsulfonyl)-8-(4-(trifluoromethyl)phenyl)quinoline-3-carboxamide]	0.1 to 1
COCC(=O)NCCOCCOCCNC(=O)c1ccc2c(-c3ccc(C(F)(F)F)cc3)cccc2c1 [Compound 76, N-(4-oxo-2,8,11-trioxa-5-azatridecan-13-yl)-5-(4-(trifluoromethyl)phenyl)-2-naphthamide]	0.1 to 1
COCCC(=O)NCCOCCOCCNC(=O)c1ccc2c(-c3ccc(C(F)(F)F)cc3)cccc2c1 [Compound 77, N-(5-oxo-2,9,12-trioxa-6-azatetradecan-14-yl)-5-(4-(trifluoromethyl)phenyl)-2-naphthamide]	0.1 to 1
CCS(=O)(=O)NC(=O)c1ccc2c(-c3ccc(C(F)(F)F)cc3)cccc2c1 [Compound 78, N-(ethylsulfonyl)-5-(4-(trifluoromethyl)phenyl)-2-naphthamide]	0.1 to 1
CCOc1cc(-c2ccc(C(F)(F)F)cc2)c2ncc(C(=O)NS(C)(=O)=O)cc2c1 [Compound 81, 6-ethoxy-N-(methylsulfonyl)-8-(4-(trifluoromethyl)phenyl)quinoline-3-carboxamide]	0.1 to 1
C[C@@H](CO)NC(=O)c1ccc2c(-c3ccc(C(F)(F)F)cc3)cccc2c1 [Compound 84, (S)—N-(1-hydroxypropan-2-yl)-5-(4-(trifluoromethyl)phenyl)-2-naphthamide]	< 0.1
C[C@H](CO)NC(=O)c1ccc2c(-c3ccc(C(F)(F)F)cc3)cccc2c1 [Compound 85, (R)—N-(1-hydroxypropan-2-yl)-5-(4-(trifluoromethyl)phenyl)-2-naphthamide]	< 0.1
O=C(NCCO)c1ccc2c(-c3ccc(C(F)(F)F)cc3)cccc2c1 [Compound 86, N-(2-hydroxyethyl)-5-(4-(trifluoromethyl)phenyl)-2-naphthamide]	< 0.1
CC(C)NC(=O)c1ccc2c(-c3ccc(C(F)(F)F)cc3)ccc(C(F)(F)F)c2c1 [Compound 87, N-isopropyl-8-(trifluoromethyl)-5-(4-(trifluoromethyl)phenyl)-2-naphthamide]	0.1 to 1
CC(C)NC(=O)c1ccc2c(-c3ccc(C(F)(F)F)cc3)ccc(I)c2c1 [Compound 88, 8-iodo-N-isopropyl-5-(4-(trifluoromethyl)phenyl)-2-naphthamide]	0.1 to 1
